# Assay results as given in article PMC9513367 (2022).
# Legend:
# [1] = tested on: Apt-M13 (DNA, aptamer) CGGGGGACGTTGCCAACGGTAACGTCGTTGGAT; experiment: fluorescence enhancement of dye; details: water, room temperature; aptamer 50 nM stock, 1X SGI
# [2] = tested on: Apt-T1 (DNA, aptamer) CGAGGGACGAGGAGTACTTGCCAACGATAACGTCGTTGGAT; experiment: AuNP colorimetric (A650/A520); details: NaCl 36.7 mM added, water, room temperature
# [3] = tested on: Apt-T3 (DNA, aptamer) TTGCCAACGATAACGTCGTTGGAT; experiment: AuNP colorimetric (A650/A520); details: NaCl 36.7 mM added; water, room temperature; DEX titration
# [4] = tested on: FAM-Apt-M13 (DNA, aptamer) CGGGGGACGTTGCCAACGGTAACGTCGTTGGAT; experiment: graphene oxide fluorescence, saturation fit; details: water, 37 °C 2 h; aptamer 10-250 nM varied, DEX 1.5 μM fixed; GO:aptamer mass 200:1
# [5] = tested on: Apt-M9 (DNA, aptamer) CGAGGGACGTTGGCAACGGTAACGTCGTTGGAT; experiment: AuNP colorimetric (A650/A520); details: NaCl 36.7 mM added; water, room temperature; DEX titration
# [6] = tested on: Apt-T2 (DNA, aptamer) CGAGGGACGTTGCCAACGATAACGTCGTTGGAT; experiment: AuNP colorimetric (A650/A520); details: NaCl 36.7 mM added, water, room temperature
# [7] = tested on: Apt-M13 (DNA, aptamer) CGGGGGACGTTGCCAACGGTAACGTCGTTGGAT; experiment: AuNP colorimetric (A650/A520); details: NaCl 36.7 mM added, water, room temperature
# [8] = tested on: Apt-M11 (DNA, aptamer) CGAGGGACGTTGCCAACGGTAAGGTCGTTGGAT; experiment: AuNP colorimetric (A650/A520); details: NaCl 36.7 mM added; water, room temperature; DEX titration
# [9] = tested on: FAM-Apt1 (DNA, aptamer) ACACGACGAGGGACGAGGAGTACTTGCCAACGATAACGTCGTTGGATCTGTCTGTGCCC; experiment: graphene oxide fluorescence, saturation fit; details: water, 37 °C 2 h; aptamer 10-250 nM varied, DEX 1.5 μM fixed; GO:aptamer mass 200:1
# [10] = tested on: Apt-M15 (DNA, aptamer) CGAGGGACGTTGCCAACGATAAGGTGGTTGGAT; experiment: AuNP colorimetric (A650/A520); details: NaCl 36.7 mM added; water, room temperature; DEX titration
# [11] = tested on: Apt-M12 (DNA, aptamer) CGAGGGACGTTGCCAACGGTAACGTGGTTGGAT; experiment: AuNP colorimetric (A650/A520); details: NaCl 36.7 mM added; water, room temperature; DEX titration
# [12] = tested on: Apt1 (DNA, aptamer) ACACGACGAGGGACGAGGAGTACTTGCCAACGATAACGTCGTTGGATCTGTCTGTGCCC; experiment: AuNP colorimetric (A650/A520); details: NaCl 36.7 mM added, water, room temperature
compound,measurement,setting,value
CCCN(CCCN(C)C)c1cc(C=C2Sc3ccccc3N2C)c2ccccc2[n+]1-c1ccccc1,binding,[1],yes
C[C@@H]1C[C@H]2[C@@H]3CCC4=CC(=O)C=C[C@]4(C)[C@@]3(F)[C@@H](O)C[C@]2(C)[C@@]1(O)C(=O)CO,binding,[2]; DEX titration,yes
same,binding,[3],yes
same,Kd,[4],200 ± 93 nM
same,binding,[5],yes
same,binding,[6]; DEX titration,yes
same,binding,[7]; DEX titration,yes
same,binding,[8],yes
same,Kd,[9],441 ± 180 nM
same,binding,[10],yes
same,binding,[11],yes
same,binding,[12]; DEX titration,yes
C[C@]12CCC(=O)C=C1CC[C@@H]1[C@@H]2[C@@H](O)C[C@@]2(C)[C@H]1CC[C@]2(O)C(=O)CO,binding,[6]; 100 nmol/mL analog tested,no
same,binding,[7]; 50 nmol/mL analog tested,no
same,binding,[12]; 100 nmol/mL analog tested,no
CC(=O)OCC(=O)[C@@]1(O)CC[C@H]2[C@@H]3CCC4=CC(=O)C=C[C@]4(C)[C@H]3C(=O)C[C@@]21C,binding,[6]; 100 nmol/mL analog tested,no
same,binding,[7]; 50 nmol/mL analog tested,no
same,binding,[12]; 100 nmol/mL analog tested,no
CCCC1O[C@@H]2C[C@H]3[C@@H]4CCC5=CC(=O)C=C[C@]5(C)[C@H]4[C@@H](O)C[C@]3(C)[C@]2(C(=O)CO)O1 (stereo partly shown),binding,[2]; 100 nmol/mL,yes
same,binding,[6]; 100 nmol/mL analog tested,no
same,binding,[7]; 50 nmol/mL analog tested,no
same,binding,[12]; 100 nmol/mL analog tested,no
O=C(N[C@H](CO)[C@H](O)c1ccc([N+](=O)[O-])cc1)C(Cl)Cl,binding,[6]; 100 nmol/mL analog tested,no
same,binding,[7]; 50 nmol/mL analog tested,no
same,binding,[12]; 100 nmol/mL analog tested,no
